Values after ≈ are worked out from the molar mass of the structure shown. Active and inactive are the calls of the source. The rule behind the calls is not given here.

Tested on in the first assay: not listed separately
Kind of assay: Cytotoxicity against human BC1 cells. The class given is functional. Particulars: read-out: ED50 (the source's name).
As to `C=C1C(=O)O[C@@H]2[C@@H]1CC(=O)[C@H](C)[C@@](O)(C(=O)CC(C)OC)[C@H]2OC(=O)C(C)CC` (stereo not given in full), the EC50 was determined as 1.2 µg/mL (≈ 2.92 µM).
Same read-out and setting: next, `C=C1C(=O)O[C@@H]2[C@@H]1[C@H]1O[C@H]1[C@H](C)[C@@](O)(C(=O)/C=C/C)[C@H]2OC(=O)/C(C)=C\C`: 0.3 µg/mL (≈ 0.797 µM); `C=C1C(=O)O[C@@H]2[C@@H]1C[C@@H](O)[C@H](C)[C@@](O)(C(=O)/C=C/C)[C@H]2OC(=O)/C(C)=C\C`: 0.6 µg/mL (≈ 1.59 µM).
The same measure, in the same setting: next, `C=C1C(=O)O[C@@H]2[C@@H]1CC[C@H](C)[C@@](O)(C(=O)/C=C/C)[C@H]2OC(=O)/C(C)=C\C`: 0.8 µg/mL (≈ 2.21 µM); `C=C1C(=O)O[C@@H]2[C@@H]1[C@@H](O)C[C@H](C)[C@@](O)(C(=O)/C=C/C)[C@H]2OC(=O)/C(C)=C\C`: 4.2 µg/mL (≈ 11.1 µM).

A further assay relates to HT. In words: Cytotoxicity against human HT cells. The class given is functional. The settings on record: read-out: ED50 (the source's name).
Take `C=C1C(=O)O[C@@H]2[C@@H]1[C@H]1O[C@H]1[C@H](C)[C@@](O)(C(=O)/C=C/C)[C@H]2OC(=O)/C(C)=C\C`: the EC50 stood at 0.16 µg/mL (≈ 0.425 µM).
The same measure, in the same setting: the figure for `C=C1C(=O)O[C@@H]2[C@@H]1C[C@@H](O)[C@H](C)[C@@](O)(C(=O)/C=C/C)[C@H]2OC(=O)/C(C)=C\C` is 0.3 µg/mL (≈ 0.793 µM).
With `C=C1C(=O)O[C@@H]2[C@@H]1CC[C@H](C)[C@@](O)(C(=O)/C=C/C)[C@H]2OC(=O)/C(C)=C\C`, the EC50 stood at 0.4 µg/mL (≈ 1.1 µM).

The next assay has as its system Lu1. In words: Cytotoxicity against human Lu1 cells. The settings on record: read-out: ED50 (the source's name). The class given is functional.
Turning to `C=C1C(=O)O[C@@H]2[C@@H]1CC(=O)[C@H](C)[C@@](O)(C(=O)CC(C)OC)[C@H]2OC(=O)C(C)CC` (stereo not given in full), the EC50 was 4.4 µg/mL (≈ 10.7 µM).
The same measure, in the same setting: the figure for `C=C1C(=O)O[C@@H]2[C@@H]1[C@H]1O[C@H]1[C@H](C)[C@@](O)(C(=O)/C=C/C)[C@H]2OC(=O)/C(C)=C\C` is 0.5 µg/mL (≈ 1.33 µM); for `C=C1C(=O)O[C@@H]2[C@@H]1C[C@@H](O)[C@H](C)[C@@](O)(C(=O)/C=C/C)[C@H]2OC(=O)/C(C)=C\C` it is 1.1 µg/mL (≈ 2.91 µM); for `C=C1C(=O)O[C@@H]2[C@@H]1CC[C@H](C)[C@@](O)(C(=O)/C=C/C)[C@H]2OC(=O)/C(C)=C\C` it is 0.4 µg/mL (≈ 1.1 µM).
For the compound `C=C1C(=O)O[C@@H]2[C@@H]1[C@@H](O)C[C@H](C)[C@@](O)(C(=O)/C=C/C)[C@H]2OC(=O)/C(C)=C\C`, the EC50 stood at 2.3 µg/mL (≈ 6.08 µM).

The next assay concerns Col2. In words: Cytotoxicity against human Col2 cells. The class given is functional. Particulars: read-out: ED50 (the source's name).
Regarding `C=C1C(=O)O[C@@H]2[C@@H]1CC(=O)[C@H](C)[C@@](O)(C(=O)CC(C)OC)[C@H]2OC(=O)C(C)CC` (stereo not given in full), the EC50 turned out to be 3.1 µg/mL (≈ 7.55 µM).
Turning to `C=C1C(=O)O[C@@H]2[C@@H]1[C@H]1O[C@H]1[C@H](C)[C@@](O)(C(=O)/C=C/C)[C@H]2OC(=O)/C(C)=C\C`, the EC50 came to 0.8 µg/mL (≈ 2.13 µM).
The same measure, in the same setting: next, `C=C1C(=O)O[C@@H]2[C@@H]1C[C@@H](O)[C@H](C)[C@@](O)(C(=O)/C=C/C)[C@H]2OC(=O)/C(C)=C\C`: 0.5 µg/mL (≈ 1.32 µM); `C=C1C(=O)O[C@@H]2[C@@H]1CC[C@H](C)[C@@](O)(C(=O)/C=C/C)[C@H]2OC(=O)/C(C)=C\C`: 0.9 µg/mL (≈ 2.48 µM).
As for `C=C1C(=O)O[C@@H]2[C@@H]1[C@@H](O)C[C@H](C)[C@@](O)(C(=O)/C=C/C)[C@H]2OC(=O)/C(C)=C\C`, the EC50 turned out to be 5.7 µg/mL (≈ 15.1 µM).

Another assay concerns KB. In words: Cytotoxicity against human KB cells. The class given is functional. Particulars: read-out: ED50 (the source's name).
In the case of `C=C1C(=O)O[C@@H]2[C@@H]1CC(=O)[C@H](C)[C@@](O)(C(=O)CC(C)OC)[C@H]2OC(=O)C(C)CC` (stereo not given in full), the EC50 worked out at 6.6 µg/mL (≈ 16.1 µM).
As for `C=C1C(=O)O[C@@H]2[C@@H]1[C@H]1O[C@H]1[C@H](C)[C@@](O)(C(=O)/C=C/C)[C@H]2OC(=O)/C(C)=C\C`, the EC50 amounted to 0.3 µg/mL (≈ 0.797 µM).
Same read-out and setting: next, `C=C1C(=O)O[C@@H]2[C@@H]1C[C@@H](O)[C@H](C)[C@@](O)(C(=O)/C=C/C)[C@H]2OC(=O)/C(C)=C\C`: 0.3 µg/mL (≈ 0.793 µM); `C=C1C(=O)O[C@@H]2[C@@H]1CC[C@H](C)[C@@](O)(C(=O)/C=C/C)[C@H]2OC(=O)/C(C)=C\C`: 0.4 µg/mL (≈ 1.1 µM); `C=C1C(=O)O[C@@H]2[C@@H]1[C@@H](O)C[C@H](C)[C@@](O)(C(=O)/C=C/C)[C@H]2OC(=O)/C(C)=C\C`: 1.4 µg/mL (≈ 3.7 µM).

Tested on in another assay: not listed separately
Kind of assay: Cytotoxicity against human multidrug-resistant KB-V1+ cells in presence of vinblastine. The class given is functional. Particulars: read-out: ED50 (the source's name).
Take `C=C1C(=O)O[C@@H]2[C@@H]1CC(=O)[C@H](C)[C@@](O)(C(=O)CC(C)OC)[C@H]2OC(=O)C(C)CC` (stereo not given in full): the EC50 turned out to be 5 µg/mL.
On to `C=C1C(=O)O[C@@H]2[C@@H]1[C@H]1O[C@H]1[C@H](C)[C@@](O)(C(=O)/C=C/C)[C@H]2OC(=O)/C(C)=C\C`, for which the EC50 was 0.9 µg/mL.
Same read-out and setting: the figure for `C=C1C(=O)O[C@@H]2[C@@H]1C[C@@H](O)[C@H](C)[C@@](O)(C(=O)/C=C/C)[C@H]2OC(=O)/C(C)=C\C` is 1.3 µg/mL.
Same read-out and setting: the figure for `C=C1C(=O)O[C@@H]2[C@@H]1CC[C@H](C)[C@@](O)(C(=O)/C=C/C)[C@H]2OC(=O)/C(C)=C\C` is 0.3 µg/mL; for `C=C1C(=O)O[C@@H]2[C@@H]1[C@@H](O)C[C@H](C)[C@@](O)(C(=O)/C=C/C)[C@H]2OC(=O)/C(C)=C\C` it is 1.7 µg/mL.

Tested on in another assay: not listed separately
In words: Cytotoxicity against human multidrug-resistant KBV1 cells in absence of vinblastine. Format: functional. Particulars: KB-V1, read-out: ED50 (the source's name).
For the compound `C=C1C(=O)O[C@@H]2[C@@H]1CC(=O)[C@H](C)[C@@](O)(C(=O)CC(C)OC)[C@H]2OC(=O)C(C)CC` (stereo not given in full), the EC50 turned out to be 4 µg/mL (≈ 9.75 µM).
Same read-out and setting: the figure for `C=C1C(=O)O[C@@H]2[C@@H]1[C@H]1O[C@H]1[C@H](C)[C@@](O)(C(=O)/C=C/C)[C@H]2OC(=O)/C(C)=C\C` is 0.2 µg/mL (≈ 0.531 µM); for `C=C1C(=O)O[C@@H]2[C@@H]1C[C@@H](O)[C@H](C)[C@@](O)(C(=O)/C=C/C)[C@H]2OC(=O)/C(C)=C\C` it is 1.2 µg/mL (≈ 3.17 µM); for `C=C1C(=O)O[C@@H]2[C@@H]1CC[C@H](C)[C@@](O)(C(=O)/C=C/C)[C@H]2OC(=O)/C(C)=C\C` it is 1.6 µg/mL (≈ 4.41 µM).
Same read-out and setting: the figure for `C=C1C(=O)O[C@@H]2[C@@H]1[C@@H](O)C[C@H](C)[C@@](O)(C(=O)/C=C/C)[C@H]2OC(=O)/C(C)=C\C` is 3 µg/mL (≈ 7.93 µM).

The subject of a further assay is A-431. In words: Cytotoxicity against human A431 cells. The settings on record: read-out: ED50 (the source's name). Format: functional.
For `C=C1C(=O)O[C@@H]2[C@@H]1C[C@@H](O)[C@H](C)[C@@](O)(C(=O)/C=C/C)[C@H]2OC(=O)/C(C)=C\C`, the EC50 turned out to be 0.2 µg/mL (≈ 0.529 µM).

The subject of another assay is LNCaP. Kind of assay: Cytotoxicity against hormone-dependent human LNCaP cells. Particulars: read-out: ED50 (the source's name). Format: functional.
Consider `C=C1C(=O)O[C@@H]2[C@@H]1CC(=O)[C@H](C)[C@@](O)(C(=O)CC(C)OC)[C@H]2OC(=O)C(C)CC` (stereo not given in full), for which the EC50 is 0.5 µg/mL (≈ 1.22 µM).
The same measure, in the same setting: the figure for `C=C1C(=O)O[C@@H]2[C@@H]1C[C@@H](O)[C@H](C)[C@@](O)(C(=O)/C=C/C)[C@H]2OC(=O)/C(C)=C\C` is 0.16 µg/mL (≈ 0.423 µM); for `C=C1C(=O)O[C@@H]2[C@@H]1CC[C@H](C)[C@@](O)(C(=O)/C=C/C)[C@H]2OC(=O)/C(C)=C\C` it is 1 µg/mL (≈ 2.76 µM).
Same read-out and setting: next, `C=C1C(=O)O[C@@H]2[C@@H]1[C@@H](O)C[C@H](C)[C@@](O)(C(=O)/C=C/C)[C@H]2OC(=O)/C(C)=C\C`: 0.4 µg/mL (≈ 1.06 µM).

The subject of another assay is ZR-75-1. In words: Cytotoxicity against hormone-dependent human ZR751 cells. The class given is functional. The settings on record: read-out: ED50 (the source's name).
`C=C1C(=O)O[C@@H]2[C@@H]1C[C@@H](O)[C@H](C)[C@@](O)(C(=O)/C=C/C)[C@H]2OC(=O)/C(C)=C\C`: the EC50 amounted to 0.2 µg/mL (≈ 0.529 µM).
Regarding `C=C1C(=O)O[C@@H]2[C@@H]1CC[C@H](C)[C@@](O)(C(=O)/C=C/C)[C@H]2OC(=O)/C(C)=C\C`, the EC50 was found to be 1.4 µg/mL (≈ 3.86 µM).
Regarding `C=C1C(=O)O[C@@H]2[C@@H]1[C@@H](O)C[C@H](C)[C@@](O)(C(=O)/C=C/C)[C@H]2OC(=O)/C(C)=C\C`, the EC50 was 1.4 µg/mL (≈ 3.7 µM).

Tested on in the next assay: not listed separately
Kind of assay: Cytotoxicity against human U373 cells. The class given is functional, U-373MG ATCC. The settings on record: U373 MG, read-out: ED50 (the source's name).
Consider `C=C1C(=O)O[C@@H]2[C@@H]1[C@H]1O[C@H]1[C@H](C)[C@@](O)(C(=O)/C=C/C)[C@H]2OC(=O)/C(C)=C\C`, for which the EC50 stood at 0.2 µg/mL (≈ 0.531 µM).
On the same count and under the same terms, next, `C=C1C(=O)O[C@@H]2[C@@H]1C[C@@H](O)[C@H](C)[C@@](O)(C(=O)/C=C/C)[C@H]2OC(=O)/C(C)=C\C`: 0.2 µg/mL (≈ 0.529 µM); `C=C1C(=O)O[C@@H]2[C@@H]1CC[C@H](C)[C@@](O)(C(=O)/C=C/C)[C@H]2OC(=O)/C(C)=C\C`: 0.2 µg/mL (≈ 0.552 µM).

The next assay relates to ASK. Kind of assay: Cytotoxicity against human ASK cells at 20 ug/mL. The class given is functional, cell-based.
Conditions: not given
Turning to `C=C1C(=O)O[C@@H]2[C@@H]1CC(=O)[C@H](C)[C@@](O)(C(=O)CC(C)OC)[C@H]2OC(=O)C(C)CC` (stereo not given in full), the result was inactive.
The same measure, in the same setting: next, `C=C1C(=O)O[C@@H]2[C@@H]1[C@H]1O[C@H]1[C@H](C)[C@@](O)(C(=O)/C=C/C)[C@H]2OC(=O)/C(C)=C\C`: “inactive”.
The same measure, in the same setting: next, `C=C1C(=O)O[C@@H]2[C@@H]1C[C@@H](O)[C@H](C)[C@@](O)(C(=O)/C=C/C)[C@H]2OC(=O)/C(C)=C\C`: “inactive”.
On the same count and under the same terms, the entry for `C=C1C(=O)O[C@@H]2[C@@H]1CC[C@H](C)[C@@](O)(C(=O)/C=C/C)[C@H]2OC(=O)/C(C)=C\C` is “inactive”; for `C=C1C(=O)O[C@@H]2[C@@H]1[C@@H](O)C[C@H](C)[C@@](O)(C(=O)/C=C/C)[C@H]2OC(=O)/C(C)=C\C` it is “inactive”.

Tested on in a further assay: not listed separately
Kind of assay: Cytotoxicity against human Mel2 cells. Format: functional. Particulars: read-out: ED50 (the source's name).
As to `C=C1C(=O)O[C@@H]2[C@@H]1C[C@@H](O)[C@H](C)[C@@](O)(C(=O)/C=C/C)[C@H]2OC(=O)/C(C)=C\C`, the EC50 was 0.5 µg/mL (≈ 1.32 µM).
